From patent publication US12121510B2 (Cedars-Sinai Medical Center, priority 2016, dated 2024)

Tests used:
[1] = system: PARP, Caspase 9 and p53 in Caki-1 cells; assay: Western blot of apoptosis related proteins; format: cell-based, human
From the text: Results also confirm elevated expression of p53 (a tumor suppressor) in human kidney cancer Caki cells (see panel D in FIG. 9).

[2] = system: caspase-3 and-7 activities in Caki-1 cells; assay: CaspaseGlo 3/7 luminescent apoptosis assay; format: cell-based, human; conditions: 24 hours after treatment
From the text: Caspase-Glo® 3/7 Assay (Promega) is a homogeneous, luminescent assay that measures caspase-3 and-7 activities that provides a luminogenic caspase-3/7 substrate, which contains the tetrapeptide sequence DEVD, in a reagent optimized for caspase activity, luciferase activity and cell lysis. A single Caspase-Glo 3/7 Reagent in an “add-mix measure” format results in cell lysis, followed by caspase cleavage of the substrate and generation of a “glow-type” luminescent signal, produced by luciferase. Luminescence is proportional to the amount of caspase activity present. Caspase-Glo® 3/7 Reagent is prepared, mixed and the reagent and the 96-well plate containing cells are equilibrated to room temperature. […] The plate is incubated at room temperature for 30 minutes to 3 hours, depending upon the cell culture system (optimal incubation period determined empirically). Luminescence of each sample is measured in a plate-reading luminometer. […]
B-cell lymphoma cells (Namalwa) are cultured in RPMI 1640, 10% fetal bovine serum, 1% PenStrep, and placed in a humidified atmosphere containing 5% CO2 at 37° C. […] 100 microliters of Caspase-Glo 3/7 assay is added and luminescence is then read. […] 100 microliters of Caspase-Glo 3/7 assay is added and luminescence is then read.

[3] = system: Namalwa human lymphoma xenograft tumors; assay: Immunohistochemical staining of xenograft tumors; format: in vivo; conditions: Namalwa xenograft tumors of mice
From the text: (§1) These normal kidney and liver tissues were obtained from mice harbored with human Burkitt's lymphoma.

[4] = system: normal mouse kidney and liver; assay: Immunohistochemical staining of normal kidney and liver; format: in vivo; conditions: mice harbored with human Burkitt's lymphoma
From the text: as §1

Caki-1 = assay: Renal cancer cell growth IC50 (crystal violet); format: cell-based, human; conditions: Example 11
From the text: (§2) Exemplary Embodiments are generally performed as follows, unless otherwise noted. Simvastatin is purchased from Ark Pharm, Inc. (Arlington Heights, IL). Cisplatin (CIS) is purchased from MedKoo Biosciences, Inc. (Chapel Hill, NC). Dihydroartemisinin is purchased from TCI America (Portland, OR). All other chemicals and reagents are purchased from standard sources such as Sigma-Aldrich and/or VWR and are of highest quality available. Puromycin dihydrochloride was purchased from Alfa Aesar (Tewksbury, MA). Deionized water ([…]) used for making solutions is obtained from Milli-Q Direct Ultrapure Water System from Millipore (Billerica, MA, USA). All intermediates are characterized by 1H NMR and mass analysis and the purity of compounds are analyzed by HPLC. 1H NMR data are collected on Bruker 400 MHz spectrometers using standard parameters; chemical shifts are reported in ppm (δ) in reference to residual non-deuterated solvent. ESI mass spectroscopy analysis is performed using a Thermo Fisher LTQ Orbitrap Elite system. IC50 is the half maximal inhibitory concentration and determined is determined by crystal violet assay unless otherwise noted.
(§3) The crystal violet assay is performed as follows, unless otherwise noted. Cell lines are supplemented with RPMI 1640 medium, 10% fetal bovine serum, 1% PenStrep, and placed in a humidified atmosphere containing 5% CO2 at 37° C. 5,000 cells/well renal cancer cells and 10,000 cells/well lymphoma cells are seeded in 96 well plates in 100 microliter medium/per well for 24 h. […] Renal cancer cells are fixed with 3.7% paraformaldehyde for 15 minutes and are stained with Crystal violet solution (0.5% in 25% methanol) for 30 minutes. After rinsing with water cell layers are dried and decolorized with Sorenson citrate with shaking for 20 minutes. Light absorption of the extracted supernatant is read at 595 nm. Lymphoma cell growth was evaluated using MTT and cells are incubated for 4 hours. 100 microliters of isopropanol is added, and the extracted supernatant fraction is read at absorption maximum of 595 nm.
(§4) Standard cell culture conditions typically are RPMI 1640 medium, 10% fetal bovine serum, 1% PenStrep, and are performed in a humidified atmosphere containing 5% CO2 at 37° C. Generally, 5,000 cells/well-10,000 cells/well are seeded in 96 well plates in 100 microliter medium/per well for 24 h, or as described in Example 16, unless otherwise noted. Certain cells require specialized media, growth factors, antibiotics, or culture condition adjustments, as will be apparent to a person of ordinary skill in the art.
as §3, with “Cell” for “The crystal violet assay is performed as follows, unless otherwise noted. Cell”, “cultured as follows. […]” for “supplemented with RPMI 1640 medium, 10% fetal bovine serum, 1% PenStrep, and placed in a humidified atmosphere containing 5% CO2 at 37° C.”, “is” for “was”

mouse kidney = assay: Kidney histopathology (hematoxylin and eosin); format: in vivo; conditions: normal kidney of mice implanted with kidney tumors
22Rv1 = assay: Cancer cell growth IC50 (crystal violet); format: cell-based, human; conditions: Example 13, 72 h
From the text: as §2
(§5) The crystal violet assay is performed as follows, unless otherwise noted. Cell lines are supplemented with RPMI 1640 medium, 10% fetal bovine serum, 1% PenStrep, and placed in a humidified atmosphere containing 5% CO2 at 37° C. 5,000 cells/well renal cancer cells and 10,000 cells/well lymphoma cells are seeded in 96 well plates in 100 microliter medium/per well for 24 h. […] Renal cancer cells are fixed with 3.7% paraformaldehyde for 15 minutes and are stained with Crystal violet solution (0.5% in 25% methanol) for 30 minutes. After rinsing with water cell layers are dried and decolorized with Sorenson citrate with shaking for 20 minutes. Light absorption of the extracted supernatant is read at 595 nm. Lymphoma cell growth was evaluated using MTT and cells are incubated for 4 hours. 100 microliters of isopropanol is added, and the extracted supernatant fraction is read at absorption maximum of 595 nm. […]

U87 = assay: Cancer cell growth IC50 (crystal violet); format: cell-based; conditions: Example 13, 72 h
From the text: as §2, §3, §4

C4-2 = assay: Cancer cell growth IC50 (crystal violet); format: cell-based; conditions: Example 13; C42; 72 h
From the text: as §2, §3, §4

ARCaP-E = assay: Cancer cell growth IC50 (crystal violet); format: cell-based; conditions: Example 13, 72 h
From the text: as §2, §3, §4

PC3 = assay: Cancer cell growth IC50 (crystal violet); format: cell-based; conditions: Example 13, 72 h
From the text: as §2, §3, §4

C4-2B = assay: Cancer cell growth IC50 (crystal violet); format: cell-based; conditions: Example 13, 72 h
From the text: as §2, §3, §4

PC3M = assay: Cancer cell growth IC50 (crystal violet); format: cell-based; conditions: Example 13, 72 h
From the text: as §2, §3, §4

MCF-7 = assay: Cancer cell growth IC50 (crystal violet); format: cell-based; conditions: Example 13, 72 h
From the text: as §2, §3, §4

LNCaP = assay: Cancer cell growth IC50 (crystal violet); format: cell-based; conditions: Example 13, 72 h
From the text: as §2, §3, §4

22Rv1 tumors = assay: Prostate tumor xenograft growth; format: in vivo, mice; conditions: IP twice per week, 37 days; SIM 1.1 mg/kg, DZ-SIM 5.5 mg/kg, DT 8 mg/kg
Description: A human prostate tumor xenograft model, 22Rv1 in immune compromised mice, is employed as follows. 1×10^6 freshly harvested cells of a cultured human prostate carcinoma cell line, 22Rv1, are inoculated s.q. in mice. Mice bearing 22Rv1 tumors (10 tumors/group) are randomized into 7 groups on day-1, and administered drugs by IP (intraperitoneally) at the next day (day-2), and subsequently twice per week, using the following drugs and dosages: a control/vehicle (V, i.e. no drug), DZ (5 μM or 3.9 mg/kg, calculated based on the body weight of mice which averaged 20 grams), SIM (5 μM or 1.1 mg/kg), DZ-SIM (5 μM or 5.5 mg/kg), docetaxel (DT, 8 mg/kg), SIM+DT (drug doses as indicated), and DZ-SIM+DT (drug doses as indicated). Administration is continued for a total of 37 days, and tumor volumes are measured at the indicated times (see FIG. 4). […] Thus therapeutically resistant prostate tumors can be rendered sensitive by DZ-SIM but not SIM.

[5] = system: Ramos, a B-cell lymphoma, cultured as 3-D spheroids; assay: Cell viability IC50 in 3-D spheroids; format: cell-based, human
From the text: as §2
Cancer cells were Ramos, a B-cell lymphoma, cultured as 3-D spheroids, cultured according to their standard culturing conditions.

NKPC-961 = assay: Sensitization of pancreatic cancer cells to CIS and GEM; format: cell-based, mouse
From the text: GEM (or PAC) alone are compared to a combination with SIM, or a combination with DZ-SIM.

A549 or A549/DDP cells = assay: CIS IC50 with constant DZ-SIM ester or amide, Crystal Violet assay; format: cell-based, human; conditions: 72 h
Description: Cell proliferation is determined by a Crystal Violet assay. The data represent the mean+/−SEM for two assays done in quadruplicate.

CTC 752-S-1 = assay: Circulating tumor cell growth IC50 / sensitization; format: cell-based, human; conditions: CTC-752-S-1 human pancreatic cancer cells; 72 hours
From the text: as §2, §4
Pancreatic cancer cells are cultured for 72 hours in vitro and exposed to the conventional chemotherapeutic drugs Gemcitabine (GEM) and Paclitaxel (PAC), known to inhibit pancreatic cancer growth in patients. GEM (or PAC) alone are compared to a combination with SIM, or a combination with DZ-SIM. […] Representative results are illustrated in the graphs in FIG. 3.
Cells are cultured according to their standard culturing conditions, and IC50s are determined as described herein-above.
Representative results of the determined IC50s are shown in the table below for the indicated cancer cells cultured in vitro, including CTCs (C752-S-1), B-Cell Lymphoma (Namalwa), prostate cancer cells (C4-2B), and renal cancer cells (Caki-1). The cells are cultured according to their standard culturing conditions, and IC50s are determined as described herein-above.

MIAPaCa II = assay: Cancer cell growth IC50 / sensitization (crystal violet); format: cell-based; conditions: Example 13, 72 h
From the text: as §2, §5

Namalwa = assay: Lymphoma cell growth IC50 (MTT); format: cell-based, human; conditions: Example 13, 72 h, read-out: IC50
From the text: as §2, §3, §4
as §3, with “Cell” for “The crystal violet assay is performed as follows, unless otherwise noted. Cell”, “cultured as follows. […]” for “supplemented with RPMI 1640 medium, 10% fetal bovine serum, 1% PenStrep, and placed in a humidified atmosphere containing 5% CO2 at 37° C.”, “is” for “was”

Ramos = assay: Lymphoma cell growth IC50 (MTT); format: cell-based, human; conditions: Example 13, 72 h, read-out: IC50
From the text: as §2, §3, §4
as §3, with “Cell” for “The crystal violet assay is performed as follows, unless otherwise noted. Cell”, “cultured as follows. […]” for “supplemented with RPMI 1640 medium, 10% fetal bovine serum, 1% PenStrep, and placed in a humidified atmosphere containing 5% CO2 at 37° C.”, “is” for “was”

Raji = assay: Lymphoma cell growth IC50 (MTT); format: cell-based, human; conditions: Example 13, 72 h, read-out: IC50
From the text: as §2, §3, §4
as §3, with “Cell” for “The crystal violet assay is performed as follows, unless otherwise noted. Cell”, “cultured as follows. […]” for “supplemented with RPMI 1640 medium, 10% fetal bovine serum, 1% PenStrep, and placed in a humidified atmosphere containing 5% CO2 at 37° C.”, “is” for “was”

Daudi = assay: Lymphoma cell growth IC50 (MTT); format: cell-based, human; conditions: Example 13, 72 h, read-out: IC50
From the text: as §2, §3, §4
as §3, with “Cell” for “The crystal violet assay is performed as follows, unless otherwise noted. Cell”, “cultured as follows. […]” for “supplemented with RPMI 1640 medium, 10% fetal bovine serum, 1% PenStrep, and placed in a humidified atmosphere containing 5% CO2 at 37° C.”, “is” for “was”

SMILES: CC1(C)C(/C=C/C2=C(Cl)C(=C/C=C3/N(CCCCCC(=O)[O][Pt]([NH2])([NH2])([OH])([Cl])[Cl])c4ccccc4C3(C)C)/CCC2)=[N+](CCCCS(=O)(=O)[O-])c2ccccc21 [DZ-CIS ester]
- Expression of apoptosis related proteins PARP, Caspase 9 and p53 [1]: induces elevation of apoptosis related proteins
- Level of apoptosis, CaspaseGlo 3/7 [2]: increased apoptosis
- Apoptosis in xenograft tumors (cleaved caspase-3 and M30) [3]: increased apoptosis
- Cell proliferation in xenograft tumors (Ki67) [3]: decreased cell proliferation
- Apoptosis markers (cleaved caspas-3 and M30) / damage in normal kidney and liver [4]: protects normal kidney and liver from damage by CIS
- In vitro growth of Caki-1 (Caki-1): inhibited by DZ-CIS
- Kidney damage, histopathology (mouse kidney): protects from more severe kidney damage

SMILES: CCC(C)(C)C(=O)O[C@H]1C[C@@H](C)C=C2C=C[C@H](C)[C@H](CC[C@@H]3C[C@@H](OC(=O)CCCCCN4/C(=C/C=C5\CCCC(/C=C/C6=[N+](CCCCS(=O)(=O)[O-])c7ccccc7C6(C)C)=C5Cl)C(C)(C)c5ccccc54)CC(=O)O3)[C@H]21 [DZ-SIM ester]
- IC50 (22Rv1): 4.9 µM
- IC50 (U87): 1.32 µM
- IC50 (C4-2): 4.26 µM
- IC50 (ARCaP-E): 4.76 µM
- IC50 (PC3): 7.15 µM
- IC50 (C4-2B): 1.81 µM
- IC50 (PC3M): 5.19 µM
- IC50 (MCF-7): 9.9 µM
- IC50 (LNCaP): 1.79 µM
- Growth of 22Rv1 tumors in vivo (tumor volume) (22Rv1 tumors): inhibited the growth of tumors in vivo
- IC50 ([5]; Homo sapiens, Ramos 3-D spheroids, 72 h, single agent): 2.74 µM
- Increase of CIS cytotoxicity ([5]; Ramos, 2 μM DZ-SIM ester): over 190 fold
- Potency relative to SIM ([5]; Ramos, 72 h): 5 fold
- Sensitization to CIS and GEM (NKPC-961): about equally sensitize
- Reduction of the IC50 of CIS by combination (A549 or A549/DDP cells): up to 200 fold
- Sensitization of cancer cells to CIS (A549 or A549/DDP cells; combination with CIS): sensitize cancer cells to CIS
- Sensitization to GEM or PAC (CTC 752-S-1): more effective sensitizer to GEM or PAC than SIM
- IC50 (MIAPaCa II): 2.12 µM
- IC50 (Namalwa): 7.15 µM
- IC50 (Ramos): 2.74 µM
- IC50 (Raji): 8.8 µM
- IC50 (Daudi): 5.61 µM
